Measurements as given in patent US9139523B2, “5-HT2B receptor antagonists” (Janssen Pharmaceutica, NV, priority 2010, dated 2015).

Columns and labels:
[1] = molecular target: T1, 5HT1A (Homo sapiens, UniProt P08908); experiment: Competitive radioligand binding, 5HT1A; details: HEK293 membranes, 3H-8-OH-DPAT 0.5 nM; read-out: pIC50 5HT1A (converted)
T1 construct: expressed in transfected cells; host or cells: HEK293 (membrane fraction)
T1 sequence (P08908 1-422): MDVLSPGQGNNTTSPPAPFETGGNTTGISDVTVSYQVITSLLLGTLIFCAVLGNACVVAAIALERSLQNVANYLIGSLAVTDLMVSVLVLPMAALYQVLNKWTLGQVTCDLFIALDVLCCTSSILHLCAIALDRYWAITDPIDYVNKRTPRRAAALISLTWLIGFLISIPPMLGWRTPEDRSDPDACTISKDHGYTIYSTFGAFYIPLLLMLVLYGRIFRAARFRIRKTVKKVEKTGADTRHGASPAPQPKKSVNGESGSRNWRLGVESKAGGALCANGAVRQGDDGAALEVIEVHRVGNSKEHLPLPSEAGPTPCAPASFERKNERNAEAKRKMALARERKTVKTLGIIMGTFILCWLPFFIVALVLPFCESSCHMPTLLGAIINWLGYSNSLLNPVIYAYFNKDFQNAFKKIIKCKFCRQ
Protocol: (§1) Competitive radioligand binding assays were used to determine the affinity of the test compounds for a particular receptor. Various concentrations of the non-labelled test compound were added to the incubation mixture with the membrane fraction, containing the receptor of interest, and a fixed low concentration (nM) of the radioligand. During the incubation the radioligand bound to the receptor, but this was inhibited by the non-labelled test compound in proportion to its binding affinity and concentration.
(§2) Cell lines were established that stably express the human variant of the receptor under investigation after transfection with the appropriate cDNA (Table 1). Transfected cells were grown under standard culture conditions, and membrane fractions were obtained upon centrifugation and homogenisation of the cells. Optimal membrane dilutions for binding studies were determined and aliquots were stored at −70° C. until use. In a 96-well plate format, the appropriate radioligand was added to the membrane preparation containing the receptor under investigation. Compound solutions were prepared in DMSO, and diluted 100-fold into the multiwell plate to a final test concentration of 10^−9 to 10^−5 M. After incubation with the test compound, the unbound radioligand was removed by filtration on G/F filters with a Filtermate 96. Microscint™ was added to the washed filter plates and the radioactivity bound to the receptor was measured by liquid scintillation counting in a TopCount (Packard). To measure the Non-Specific Binding (NSB), a high concentration of the non-radiolabeled ligand was added to wells containing the membrane fraction and the radioligand.
(§3) Using in house developed software, a best-fit curve was fitted by a minimum sum of squares method to the plot of % inhibition vs. concentration of the test compound. From this, the pIC50 value (inhibitory concentration causing 50% displacement of specific binding) was determined, as well as an estimate of the slope of the plot (Hill coefficient).

[2] = molecular target: T2, 5HT3A/B (Homo sapiens, UniProt O95264+P46098); experiment: Competitive radioligand binding, 5HT3A/B; details: HEK293 membranes, 3H-GR65630 0.5 nM; read-out: pIC50 5HT3A/B (converted)
T2 construct: expressed in transfected cells; host or cells: HEK293 (membrane fraction)
T2 sequence (P46098 24-478): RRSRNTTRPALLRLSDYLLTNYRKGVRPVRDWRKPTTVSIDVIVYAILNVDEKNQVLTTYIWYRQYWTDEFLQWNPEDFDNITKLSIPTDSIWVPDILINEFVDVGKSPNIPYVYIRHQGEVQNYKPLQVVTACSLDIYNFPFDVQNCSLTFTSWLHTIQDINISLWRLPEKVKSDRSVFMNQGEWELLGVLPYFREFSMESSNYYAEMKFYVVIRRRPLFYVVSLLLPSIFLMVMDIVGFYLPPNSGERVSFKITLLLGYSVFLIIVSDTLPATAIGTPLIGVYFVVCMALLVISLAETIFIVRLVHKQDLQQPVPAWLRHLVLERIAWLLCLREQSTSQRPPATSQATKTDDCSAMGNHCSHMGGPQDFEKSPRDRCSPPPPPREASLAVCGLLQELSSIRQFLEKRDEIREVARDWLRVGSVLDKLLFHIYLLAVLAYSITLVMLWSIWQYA
T2 sequence (O95264 22-441): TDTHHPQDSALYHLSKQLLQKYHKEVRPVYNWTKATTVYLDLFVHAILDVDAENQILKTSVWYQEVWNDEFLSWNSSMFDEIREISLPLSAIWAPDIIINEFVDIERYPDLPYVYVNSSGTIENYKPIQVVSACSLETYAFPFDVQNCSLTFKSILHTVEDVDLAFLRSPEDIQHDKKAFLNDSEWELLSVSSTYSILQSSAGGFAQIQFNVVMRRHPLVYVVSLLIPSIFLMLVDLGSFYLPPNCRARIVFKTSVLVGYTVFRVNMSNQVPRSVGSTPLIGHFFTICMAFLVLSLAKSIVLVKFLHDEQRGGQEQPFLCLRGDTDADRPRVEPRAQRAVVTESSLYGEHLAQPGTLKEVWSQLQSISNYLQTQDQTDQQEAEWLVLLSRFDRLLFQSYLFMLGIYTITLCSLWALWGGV
Protocol: as §1, §2, §3

[3] = molecular target: T3, Alpha1A (Homo sapiens, UniProt P35348); experiment: Competitive radioligand binding, Alpha1A; details: CHO membranes, 3H-prazosin 0.25 nM; read-out: pIC50 Alpha1A (converted)
T3 construct: expressed in transfected cells; host or cells: CHO (membrane fraction)
T3 sequence (P35348 1-466): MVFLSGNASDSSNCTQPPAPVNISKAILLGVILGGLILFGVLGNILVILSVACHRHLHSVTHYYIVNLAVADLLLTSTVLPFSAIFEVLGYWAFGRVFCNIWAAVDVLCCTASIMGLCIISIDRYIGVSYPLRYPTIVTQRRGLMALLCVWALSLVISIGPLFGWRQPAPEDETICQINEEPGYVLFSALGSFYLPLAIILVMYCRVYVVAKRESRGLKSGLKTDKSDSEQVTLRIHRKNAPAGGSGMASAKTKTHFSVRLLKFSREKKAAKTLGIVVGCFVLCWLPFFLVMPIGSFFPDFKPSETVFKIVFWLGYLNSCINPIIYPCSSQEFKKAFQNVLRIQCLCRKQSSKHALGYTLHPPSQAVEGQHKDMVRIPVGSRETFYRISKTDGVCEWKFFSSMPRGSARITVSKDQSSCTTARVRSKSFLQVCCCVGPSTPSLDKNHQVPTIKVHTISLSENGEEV
Protocol: as §1, §2, §3

[4] = molecular target: T4, D2L (Homo sapiens, UniProt P14416); experiment: Competitive radioligand binding, D2L; details: CHO membranes, 3H-spiperone 0.2 nM; read-out: pIC50 D2L (converted)
T4 construct: expressed in transfected cells; host or cells: CHO (membrane fraction)
T4 sequence (P14416 whole entry): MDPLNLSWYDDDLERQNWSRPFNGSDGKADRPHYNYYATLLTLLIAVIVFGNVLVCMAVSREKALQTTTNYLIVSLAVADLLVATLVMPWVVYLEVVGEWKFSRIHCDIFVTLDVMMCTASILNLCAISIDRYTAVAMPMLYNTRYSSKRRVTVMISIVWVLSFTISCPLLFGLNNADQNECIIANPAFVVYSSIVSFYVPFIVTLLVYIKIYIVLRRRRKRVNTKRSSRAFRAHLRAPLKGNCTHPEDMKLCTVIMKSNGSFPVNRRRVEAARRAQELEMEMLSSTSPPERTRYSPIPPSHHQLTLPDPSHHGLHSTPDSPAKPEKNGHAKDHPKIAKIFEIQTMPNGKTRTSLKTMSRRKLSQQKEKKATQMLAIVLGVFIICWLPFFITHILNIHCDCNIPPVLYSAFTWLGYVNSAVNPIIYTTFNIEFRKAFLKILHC
Protocol: as §1, §2, §3

[5] = system: anesthetized guinea-pig; experiment: Cardiovascular effects in the anaesthetized guinea-pig; format: in vivo; details: guinea pig, 0.02 mg/kg i.v. over 1 min, 15 min after onset of last vehicle infusion
Protocol: Female guinea-pigs were anesthetized with sodium pentobarbital (66 mg/kg i.p.) followed by a continuous i.v. infusion of 6 mg/h of sodium pentobarbital and prepared for measurements of the surface electrocardiogram (ECG), heart rate and mean arterial blood pressure (see De Clerck et al, Fundam. Clin. Pharm.; 2002; 16: 125-140). Compound (−)-17 was dissolved in 20% hydroxypropyl-cyclodextrin with NaOH, HCl and mannitol in pyrogen-free water and administered intravenously (0.5 ml/kg) in increasing doses (0.16, 0.32, 0.64, 1.25, 2.5 and 5 mg/kg) over a period of 5 min at 15-min intervals. Plasma concentrations of Compound (−)-17 were measured at the end of each infusion. Corresponding volumes of vehicle were administered according to the same protocol in a second group of animals.

SMILES | IC50 [1] | IC50 [2] | IC50 [3] | IC50 [4] | heart rate [5]
COc1cc(N)c(Cl)cc1C(=O)NC1CCN(CCCOc2ccc(F)cc2)CC1OC (centres unmarked) [Cisapride, reference compound] | 1950 nM | 1150 nM | 407 nM | 537 nM | –
CN(CCOc1ccc(NS(C)(=O)=O)cc1)CCc1ccc(NS(C)(=O)=O)cc1 [dofetilide, reference compound] | – | – | – | – | decreased
